This is an account of results in US11471417B2 (Small Pharma Ltd, priority 2020, dated 2022).

A short description of data set [1]: In vitro human mitochondrial fraction intrinsic clearance of SPL026 with/without MAO-A and MAO-B inhibitors. The class given is in vitro ADME. As to conditions: for half-life / microsomal CLint: 0.5 mg/mL human liver mitochondrial fraction.
A short description of data set [2]: In vitro human mitochondrial fraction intrinsic clearance of SPL026 and SPL028 analogues. As to conditions: for microsomal CLint: Intrinsic Clearance.
A short description of data set [3]: In vitro intrinsic clearance in human hepatocytes with and without MAO inhibitors (first experiment). Conditions: both, human, hepatocytes (pooled, 10 donors), human hepatocytes.
Data set [4] deals with Human (mixed gender) hepatocytes. Described as above. Conditions: for Half-life % change / Intrinsic clearance % change: with MAO inhibitors vs no inhibitors.
The nature of data set [5]: In vitro intrinsic clearance in human hepatocytes, D2, D6 and D8 DMT (third experiment). As to conditions: both, hepatocytes (pooled, 10 donors).
Setting [6] is: with 100 nM Deprenyl/Selegiline (MAO-B inhibitor), Deprenyl (MAO-B inhibitor) 100 nM.
The mark [7] stands for this setting: 0.5 mg/mL human liver mitochondrial fraction, first experiment r7-r12, repeat r13-r20.
The mark [8] stands for this setting: human, liver mitochondrial fraction, Half-Life R1, human liver mitochondrial fraction, replicate R1.
Setting [9] is: human, liver mitochondrial fraction, Half-Life R2, human liver mitochondrial fraction, replicate R2.
[10] abbreviates: human, liver mitochondrial fraction, Half-Life R3, human liver mitochondrial fraction, replicate R3.
[11] abbreviates: human, liver mitochondrial fraction, Half-Life R4, human liver mitochondrial fraction, replicate R4.
[12] abbreviates: human, liver mitochondrial fraction, 0.5 mg/mL human liver mitochondrial fraction, first experiment r7-r12, repeat r13-r20.
Where [13] appears, read: Half-life With inhibitors, with MAO-A/B inhibitor combination (Table 5).
[14] abbreviates: Half-life Without inhibitors, without MAO-A/B inhibitor combination (Table 5).
[15] abbreviates: Intrinsic clearance With inhibitors, with MAO-A/B inhibitor combination (Table 5).
Setting [16] is: Intrinsic clearance Without inhibitors, without MAO-A/B inhibitor combination (Table 5).
Setting [17] is: in vitro half-life With inhibitors, 5 μM, with 100 nM clorgyline and 100 nM Deprenyl/Selegiline (Table 4).
Where [18] appears, read: in vitro half-life Without inhibitors, 5 μM, without MAO inhibitors (Table 4).
The mark [19] stands for this setting: with 100 nM clorgyline (MAO-A inhibitor), Clorgyline (MAO-A inhibitor) 100 nM.
Where [20] appears, read: human, liver mitochondrial fraction, Half-life, 0.5 mg/mL human liver mitochondrial fraction, first experiment r7-r12, repeat r13-r20.
Setting [21] is: human hepatocytes, MAO inhibitors vs none.

A value given as a limit tells only on which side of the number the result lay.

Turning to `NCc1ccccc1` [Benzylamine], the half-life in data set [1] (DMSO Vehicle (no inhibitor)) was 30.4 min; in data set [1] (setting [6]), greater than 420 min; in data set [2] (setting [8]), 24.3 min; in data set [2] (setting [9]), 22.1 min; in data set [2] (setting [10]), 21.2 min; in data set [2] (setting [11]) it was 23.5 min. Also, the microsomal CLint in data set [1] (DMSO Vehicle (no inhibitor)) was 45.7 µL/min/mg; in data set [1] (setting [6]), less than 3.3 µL/min/mg; in data set [2] (setting [12]), 60 µL/min/mg. Besides, the “Intrinsic Clearance” value in data set [2] (setting [7]) is on record as 62.1 μL/min/mg protein. Further, the half-life at 5 μM in data set [3] (setting [13]) worked out at 460 min; in data set [3] (setting [14]), 76.3 min; in data set [3] (setting [17]), 460 min; in data set [3] (setting [18]), 76.3 min. Further, the results for the hepatocyte CLint at 5 μM in data set [3] (setting [15]) and in data set [3] (setting [16]) were less than 3 µL/min/1e6 cells and 16.7 µL/min/1e6 cells, respectively. Also, the Half-life % change in data set [4] (human hepatocytes) was greater than 83.41%. The “Intrinsic clearance % change” value in data set [4] (human hepatocytes) is less than −450%.

In data set [5], `O=C(O)Cc1ccccc1Nc1c(Cl)cccc1Cl` [Diclofenac] showed a half-life at 5 μM of 20.7 min and a hepatocyte CLint at 5 μM of 92.5 µL/min/1e6 cells.

With `COc1ccc([C@@H]2Sc3ccccc3N(CCN(C)C)C(=O)[C@@H]2OC(C)=O)cc1` [Diltiazem], in data set [5], the half-life at 5 μM was found to be 87.3 min and the hepatocyte CLint at 5 μM came to 22 µL/min/1e6 cells.

`CN(C)CCc1c[nH]c2ccccc12` [SPL026, N,N-dimethyltryptamine]: the half-life is 33.7 min in data set [1] (DMSO Vehicle (no inhibitor)); 32.5 min in data set [1] (setting [6]); greater than 374 min in data set [1] (setting [19]); 8.6 min in data set [2] (setting [7]); 8.8 min in data set [2] (setting [8]); 8.4 min in data set [2] (setting [9]). The half-life in data set [2] (setting [10]) is 7.6 min; in data set [2] (setting [11]), 8.3 min; in data set [2] (setting [20]), 7.9 min. The microsomal CLint was 42.9 µL/min/mg in data set [1] (DMSO Vehicle (no inhibitor)), 42.7 µL/min/mg in data set [1] (setting [6]), less than 3.9 µL/min/mg in data set [1] (setting [19]) and 175 µL/min/mg in data set [2] (setting [12]). Further, the “increase in intrinsic clearance with MAO-A inhibitor (Clorgyline) compared to SPL026 without MAO inhibitors” value in data set [1] (human liver mitochondrial fraction) is given as 10 fold. The half-life at 5 μM in data set [5] is 98.9 min; in data set [3] (setting [13]) it was 96.1 min; in data set [3] (setting [14]), 92.4 min; in data set [3] (setting [17]) it was 96.1 min; in data set [3] (setting [18]), 92.4 min. Moreover, the hepatocyte CLint at 5 μM in data set [5] was determined as 19.4 µL/min/1e6 cells; in data set [3] (setting [15]), 13.2 µL/min/1e6 cells; in data set [3] (setting [16]) it was 13.8 µL/min/1e6 cells. Further, in data set [2] (setting [7]), the “Intrinsic Clearance” value turned out to be 161.0 μL/min/mg protein. In addition, in data set [4] (setting [21]), the “slower intrinsic clearance with inclusion of MAO inhibitors” value is on record as roughly 4%. The Half-life % change in data set [4] (human hepatocytes) is 3.82%. For the same molecule, the “Intrinsic clearance % change” value in data set [4] (human hepatocytes) is on record as −4.00%.

On to `[2H]C([2H])(Cc1c[nH]c2ccccc12)N(C)C` [SPL028i, α,α-dideutero-N,N-dimethyltryptamine], for which the values for the half-life at 5 μM in data set [5], in data set [3] (setting [13]) and in data set [3] (setting [17]) were 233 min, 170 min and 170 min, respectively. In addition, the hepatocyte CLint at 5 μM in data set [5] came out at 8.3 µL/min/1e6 cells; in data set [3] (setting [15]), 7.5 µL/min/1e6 cells; in data set [3] (setting [16]), 7.15 µL/min/1e6 cells. The half-life in data set [2] (setting [7]) turned out to be 92.8 min; in data set [2] (setting [8]) it was 86.1 min; in data set [2] (setting [9]) it was 99.4 min; in data set [2] (setting [10]) it was 82.6 min; in data set [2] (setting [11]) it was 72.1 min; in data set [2] (setting [20]), 77.3 min. The “quicker intrinsic clearance in the presence of MAO inhibitors” value in data set [4] (setting [21]) is recorded as roughly 5%. In addition, the “change in intrinsic clearance and half-life compared to SPL026” value in data set [4] (initial human hepatocyte studies) is roughly 2 fold. The Half-life % change in data set [4] (human hepatocytes) is recorded as −5.33%. Moreover, the “Intrinsic clearance % change” value in data set [4] (human hepatocytes) is on record as 4.67%.

With `[2H]C([2H])([2H])N(CCc1c[nH]c2ccccc12)C([2H])([2H])[2H]` [SPL028vii, N,N-bis(trideutero)dimethyltryptamine], the half-life is 9.4 min in data set [2] (setting [10]), 10.9 min in data set [2] (setting [11]) and 10.2 min in data set [2] (setting [20]). For the same molecule, in data set [2] (setting [12]), the microsomal CLint came to 137 µL/min/mg.

In the case of `[2H]C([2H])([2H])N(C([2H])([2H])[2H])C([2H])([2H])Cc1c[nH]c2ccccc12` [SPL028viii, α,α-dideutero-N,N-bis(trideutero)dimethyltryptamine], the “Intrinsic Clearance” value in data set [2] (setting [7]) came to 12.7 μL/min/mg protein. For the same molecule, the values for the half-life in data set [2] (setting [7]) and in data set [2] (setting [10]) were 112.2 min and 92.9 min, respectively. Further, the “increase in metabolic stability” value in data set [2] (human mitochondrial fraction assays) worked out at 14 fold. In data set [2] (setting [12]), this molecule displayed a microsomal CLint of 10.9 µL/min/mg.

Regarding `NCCc1c[nH]c2ccc(O)cc12` [Serotonin], the half-life in data set [1] (DMSO Vehicle (no inhibitor)) is 11.1 min; in data set [1] (setting [19]), greater than 420 min; in data set [2] (setting [8]), 9.3 min; in data set [2] (setting [9]), 9.1 min; in data set [2] (setting [10]) it was 9.1 min; in data set [2] (setting [11]), 8.5 min. For the same molecule, the microsomal CLint is 125 µL/min/mg in data set [1] (DMSO Vehicle (no inhibitor)), less than 3.3 µL/min/mg in data set [1] (setting [19]) and 151 µL/min/mg in data set [2] (setting [12]). Besides, in data set [2] (setting [7]), the “Intrinsic Clearance” value turned out to be 157.0 μL/min/mg protein. Moreover, the half-life at 5 μM in data set [3] (setting [14]) and in data set [3] (setting [18]) was 33 min throughout. For the same molecule, the hepatocyte CLint at 5 μM in data set [3] (setting [15]) is 10.1 µL/min/1e6 cells; in data set [3] (setting [16]), 38.6 µL/min/1e6 cells. In addition, in data set [4] (human hepatocytes), the Half-life % change came to 73.75%. Further, in data set [4] (human hepatocytes), the “Intrinsic clearance % change” value is listed as −282.18%.

A word on the half-life: it is how long it takes for the measured level to halve. What is called microsomal CLint is a measure of how fast metabolising enzymes remove a compound, apart from limits set by blood flow. The low end stands for slow turnover, the high end for rapid turnover. By hepatocyte CLint is commonly meant a measure of how fast metabolising enzymes remove a compound, apart from limits set by blood flow.
